Experimental data taken from the NIST ThermoML archive (doi:10.1021/je2003012).
± gives the expanded uncertainty stated by the source.

Assay: relative permittivity at various frequencies (dimensionless); wn = mass fraction of the nth substance listed
Conditions: Liquid, direct capacitance:P =

A relative permittivity (304.9 K, 29800 kPa, w2 = 0.152) of 2.85 ± 0.16, a relative permittivity (312.8 K, 8000 kPa, w2 = 0.212) of 2.8 ± 0.15 and a relative permittivity (312.8 K, 9300 kPa, w2 = 0.212) of 2.86 ± 0.14 were found for `O=C=O` [carbon dioxide] + CCO in this work. The relative permittivity (312.8 K, 11200 kPa, w2 = 0.212) was 2.94 ± 0.14, the relative permittivity (312.8 K, 11500 kPa, w2 = 0.212) was 2.94 ± 0.14 and the relative permittivity (312.8 K, 14200 kPa, w2 = 0.212) was 3 ± 0.14. It also gave a relative permittivity (312.8 K, 14300 kPa, w2 = 0.212) of 3.01 ± 0.14, a relative permittivity (312.8 K, 14900 kPa, w2 = 0.212) of 3.03 ± 0.14 and a relative permittivity (312.8 K, 15800 kPa, w2 = 0.212) of 3.05 ± 0.14. The relative permittivity (312.8 K, 17400 kPa, w2 = 0.212) was 3.11 ± 0.14, the relative permittivity (312.8 K, 18000 kPa, w2 = 0.212) was 3.14 ± 0.14 and the relative permittivity (312.8 K, 20000 kPa, w2 = 0.212) was 3.17 ± 0.14. It also gave a relative permittivity (312.8 K, 20600 kPa, w2 = 0.212) of 3.18 ± 0.14, a relative permittivity (312.8 K, 22200 kPa, w2 = 0.212) of 3.22 ± 0.14 and a relative permittivity (312.8 K, 22800 kPa, w2 = 0.212) of 3.23 ± 0.14. It also gave a relative permittivity (312.8 K, 23700 kPa, w2 = 0.212) of 3.25 ± 0.14, a relative permittivity (312.8 K, 26300 kPa, w2 = 0.212) of 3.3 ± 0.14 and a relative permittivity (312.8 K, 28100 kPa, w2 = 0.212) of 3.32 ± 0.14. It also gave a relative permittivity (312.8 K, 28400 kPa, w2 = 0.212) of 3.34 ± 0.14, a relative permittivity (312.8 K, 30800 kPa, w2 = 0.212) of 3.37 ± 0.14 and a relative permittivity (313 K, 9700 kPa, w2 = 0.05) of 1.63 ± 0.14. It also gave a relative permittivity (313 K, 9800 kPa, w2 = 0.05) of 1.64 ± 0.14, a relative permittivity (313 K, 9900 kPa, w2 = 0.05) of 1.65 ± 0.14 and a relative permittivity (313 K, 11300 kPa, w2 = 0.05) of 1.7 ± 0.14. The relative permittivity (313 K, 11700 kPa, w2 = 0.05) was 1.7 ± 0.14, the relative permittivity (313 K, 11800 kPa, w2 = 0.05) was 1.7 ± 0.14 and the relative permittivity (313 K, 13200 kPa, w2 = 0.05) was 1.74 ± 0.14. The relative permittivity (313 K, 13700 kPa, w2 = 0.05) was 1.74 ± 0.14, the relative permittivity (313 K, 15100 kPa, w2 = 0.05) was 1.77 ± 0.14 and the relative permittivity (313 K, 15700 kPa, w2 = 0.05) was 1.78 ± 0.14. It also gave a relative permittivity (313 K, 17400 kPa, w2 = 0.05) of 1.8 ± 0.14, a relative permittivity (313 K, 17500 kPa, w2 = 0.05) of 1.8 ± 0.14 and a relative permittivity (313 K, 19200 kPa, w2 = 0.05) of 1.82 ± 0.14. It also gave a relative permittivity (313 K, 20700 kPa, w2 = 0.05) of 1.83 ± 0.14, a relative permittivity (313 K, 21600 kPa, w2 = 0.05) of 1.84 ± 0.14 and a relative permittivity (313 K, 23500 kPa, w2 = 0.05) of 1.86 ± 0.14. The relative permittivity (313 K, 25300 kPa, w2 = 0.05) was 1.87 ± 0.14, the relative permittivity (313 K, 25400 kPa, w2 = 0.05) was 1.87 ± 0.14 and the relative permittivity (313 K, 27400 kPa, w2 = 0.05) was 1.89 ± 0.14. It also gave a relative permittivity (313 K, 30400 kPa, w2 = 0.05) of 1.91 ± 0.14, a relative permittivity (313.1 K, 9700 kPa, w2 = 0.1) of 1.98 ± 0.15 and a relative permittivity (313.1 K, 10100 kPa, w2 = 0.152) of 2.37 ± 0.14. For the same compound, the relative permittivity (313.1 K, 10200 kPa, w2 = 0.1) was 2 ± 0.14, the relative permittivity (313.1 K, 10900 kPa, w2 = 0.152) was 2.39 ± 0.14 and the relative permittivity (313.1 K, 11000 kPa, w2 = 0.1) was 2.03 ± 0.14. It also gave a relative permittivity (313.1 K, 11800 kPa, w2 = 0.152) of 2.42 ± 0.14, a relative permittivity (313.1 K, 12000 kPa, w2 = 0.1) of 2.05 ± 0.14 and a relative permittivity (313.1 K, 12700 kPa, w2 = 0.1) of 2.08 ± 0.14. It also gave a relative permittivity (313.1 K, 12700 kPa, w2 = 0.152) of 2.45 ± 0.14, a relative permittivity (313.1 K, 13100 kPa, w2 = 0.1) of 2.09 ± 0.14 and a relative permittivity (313.1 K, 13700 kPa, w2 = 0.1) of 2.11 ± 0.14. It also gave a relative permittivity (313.1 K, 13800 kPa, w2 = 0.152) of 2.47 ± 0.14, a relative permittivity (313.1 K, 14600 kPa, w2 = 0.152) of 2.49 ± 0.14 and a relative permittivity (313.1 K, 14800 kPa, w2 = 0.1) of 2.13 ± 0.14. The relative permittivity (313.1 K, 15700 kPa, w2 = 0.152) was 2.52 ± 0.14, the relative permittivity (313.1 K, 15800 kPa, w2 = 0.1) was 2.15 ± 0.14 and the relative permittivity (313.1 K, 16800 kPa, w2 = 0.152) was 2.54 ± 0.14. It also gave a relative permittivity (313.1 K, 17000 kPa, w2 = 0.1) of 2.17 ± 0.14, a relative permittivity (313.1 K, 17700 kPa, w2 = 0.1) of 2.18 ± 0.14 and a relative permittivity (313.1 K, 17800 kPa, w2 = 0.152) of 2.56 ± 0.14. For the same compound, the relative permittivity (313.1 K, 18800 kPa, w2 = 0.1) was 2.19 ± 0.14, the relative permittivity (313.1 K, 18800 kPa, w2 = 0.152) was 2.58 ± 0.14 and the relative permittivity (313.1 K, 19500 kPa, w2 = 0.152) was 2.59 ± 0.14. The relative permittivity (313.1 K, 19800 kPa, w2 = 0.1) was 2.2 ± 0.14, the relative permittivity (313.1 K, 20800 kPa, w2 = 0.152) was 2.61 ± 0.14 and the relative permittivity (313.1 K, 21600 kPa, w2 = 0.152) was 2.62 ± 0.14. The relative permittivity (313.1 K, 21900 kPa, w2 = 0.1) was 2.23 ± 0.14, the relative permittivity (313.1 K, 22100 kPa, w2 = 0.1) was 2.23 ± 0.14 and the relative permittivity (313.1 K, 22400 kPa, w2 = 0.1) was 2.24 ± 0.14. It also gave a relative permittivity (313.1 K, 22600 kPa, w2 = 0.152) of 2.63 ± 0.14, a relative permittivity (313.1 K, 23500 kPa, w2 = 0.152) of 2.64 ± 0.14 and a relative permittivity (313.1 K, 24100 kPa, w2 = 0.1) of 2.26 ± 0.14. It also gave a relative permittivity (313.1 K, 24400 kPa, w2 = 0.1) of 2.26 ± 0.14, a relative permittivity (313.1 K, 24500 kPa, w2 = 0.152) of 2.66 ± 0.14 and a relative permittivity (313.1 K, 25500 kPa, w2 = 0.152) of 2.67 ± 0.14. For the same compound, the relative permittivity (313.1 K, 25800 kPa, w2 = 0.1) was 2.28 ± 0.14, the relative permittivity (313.1 K, 26400 kPa, w2 = 0.1) was 2.28 ± 0.14 and the relative permittivity (313.1 K, 26500 kPa, w2 = 0.152) was 2.68 ± 0.14. It also gave a relative permittivity (313.1 K, 27500 kPa, w2 = 0.152) of 2.69 ± 0.14, a relative permittivity (313.1 K, 27700 kPa, w2 = 0.1) of 2.3 ± 0.14 and a relative permittivity (313.1 K, 27800 kPa, w2 = 0.1) of 2.3 ± 0.14. It also gave a relative permittivity (313.1 K, 27900 kPa, w2 = 0.152) of 2.7 ± 0.14, a relative permittivity (313.1 K, 28300 kPa, w2 = 0.1) of 2.3 ± 0.14 and a relative permittivity (313.1 K, 28400 kPa, w2 = 0.152) of 2.71 ± 0.14. The relative permittivity (313.1 K, 29300 kPa, w2 = 0.1) was 2.31 ± 0.14, the relative permittivity (313.1 K, 29300 kPa, w2 = 0.152) was 2.72 ± 0.14 and the relative permittivity (313.1 K, 29500 kPa, w2 = 0.1) was 2.32 ± 0.14. It also gave a relative permittivity (322.4 K, 10500 kPa, w2 = 0.1) of 1.86 ± 0.14.
